Laboratory results: US9605296B2, “Fluorogenic peptidase substrate” (ECOLE NORMALE SUPERIEURE DE LYON, priority 2011, dated 2017)

Assays:
[1] = Stability controls: fluorescence of probes in buffered aqueous solution without PLA enzyme (spontaneous hydrolysis, falsely positive signal); type: physicochemical; settings: for Signal increase relative to noise in the absence of enzyme (stability to spontaneous hydrolysis): 100 μM, 660 minutes, buffered pH ~7.6, no PLA, FIG. 4
Protocol: (§1) The probes I.1 and I.2 were evaluated by incubation with the target enzyme, microsomal leucine aminopeptidase (EC 3.4.11.2; “PLA”; commercial) in an in vitro medium in multi-well micro-plates designed for fluorescence readers.
(§2) All the final solutions for the enzymatic tests were buffered to a pH varying from 7.4 to 7.6 (depending on the room temperature) with a 25 mM (total concentration) of Tris/Tris.HCl buffer, containing 11 mM of NaCl. The microsomal leucine aminopeptidase (EC 3.4.11.2) of pig kidney was purchased from Sigma (catalogue no. 069K7356) in the form of a suspension in ammonium sulfate (3.5 M) containing MgCl2 (10 mM), with 3.5 mg·mL^−1 of protein contents and 10-40 U/mg of protein, as determined for the standard substrate, leucyl p-nitroanilide, and was stored in a fridge at 4° C. for a maximum of 40 days before its use. […] Analyses Carried Out:
(§3) The analyses were carried out with reading of the fluorescence values, measured in RFU, versus time. The analyses were conducted in black polypropylene plates with 96 (Corning, Corning Inc.) or with 384 (Nunclon, Nunc Inc.) wells, and recorded on a microplate fluorimeter (Mithras LB940 from Berthold Technologies). This fluorimeter was used in a so-called repeated mode, where the fluorescence was measured with a reading, here selected to be 3 seconds per well, the excitation beam with a diameter of 4 mm being centered in the well. […] It should be noted that this mode of use is close to the operation of optical high throughput screening by fluorescence, which is one of the applications envisioned for these types of probes. […] In the scanning mode, the wells were divided into a square read-out grid, typically covering the well with a resolution of 8×8 to 15×15 pixels, each of the pixels being read between 0.1 and 0.3 s. This scanning mode partly removes the errors and the read-out noise of the total fluorescence of the well subject to the repeated mode, subsequently to the tendency of the fluorophore once it is released of depositing a first phase on the walls. The scanning mode as implemented here is also slower and less suitable for qualitatively following reaction kinetics. It should be noted that this mode of use is close to the operation of cell counting, which is a second application envisioned for these types of probes.
A series of control measurements of background fluorescence was carried out, with wells containing some enzyme in the standard buffer without any probe. A last series of measurements was conducted by using a solution of probe I.1 prepared three weeks beforehand (“3 wks”), in order to obtain another estimation of the robustness of this probe towards spontaneous hydrolysis in practice. Each readout lasted for 3 seconds per well. […]

[2] = Solubility in water / aqueous media (observation); settings: solid tosylate; dissolves easily in MeOH then dilutable with water
[3] = target: T1, microsomal leucine aminopeptidase (EC 3.4.11.2; PLA) (Sus scrofa, UniProt P15145); assay: Enzymatic test: fluorescence of probes incubated with microsomal leucine aminopeptidase (PLA) in multi-well plates; type: biochemical, pig; settings: for Delay for obtaining an intense increase in the signal: different probe concentrations, FIG. 5, generally less than 100 minutes
T1 construct: The microsomal leucine aminopeptidase (EC 3.4.11.2) of pig kidney was purchased from Sigma; purchased Sigma 069K7356; host or cells: pig kidney (tissue-derived enzyme)
T1 sequence (P15145 1-963): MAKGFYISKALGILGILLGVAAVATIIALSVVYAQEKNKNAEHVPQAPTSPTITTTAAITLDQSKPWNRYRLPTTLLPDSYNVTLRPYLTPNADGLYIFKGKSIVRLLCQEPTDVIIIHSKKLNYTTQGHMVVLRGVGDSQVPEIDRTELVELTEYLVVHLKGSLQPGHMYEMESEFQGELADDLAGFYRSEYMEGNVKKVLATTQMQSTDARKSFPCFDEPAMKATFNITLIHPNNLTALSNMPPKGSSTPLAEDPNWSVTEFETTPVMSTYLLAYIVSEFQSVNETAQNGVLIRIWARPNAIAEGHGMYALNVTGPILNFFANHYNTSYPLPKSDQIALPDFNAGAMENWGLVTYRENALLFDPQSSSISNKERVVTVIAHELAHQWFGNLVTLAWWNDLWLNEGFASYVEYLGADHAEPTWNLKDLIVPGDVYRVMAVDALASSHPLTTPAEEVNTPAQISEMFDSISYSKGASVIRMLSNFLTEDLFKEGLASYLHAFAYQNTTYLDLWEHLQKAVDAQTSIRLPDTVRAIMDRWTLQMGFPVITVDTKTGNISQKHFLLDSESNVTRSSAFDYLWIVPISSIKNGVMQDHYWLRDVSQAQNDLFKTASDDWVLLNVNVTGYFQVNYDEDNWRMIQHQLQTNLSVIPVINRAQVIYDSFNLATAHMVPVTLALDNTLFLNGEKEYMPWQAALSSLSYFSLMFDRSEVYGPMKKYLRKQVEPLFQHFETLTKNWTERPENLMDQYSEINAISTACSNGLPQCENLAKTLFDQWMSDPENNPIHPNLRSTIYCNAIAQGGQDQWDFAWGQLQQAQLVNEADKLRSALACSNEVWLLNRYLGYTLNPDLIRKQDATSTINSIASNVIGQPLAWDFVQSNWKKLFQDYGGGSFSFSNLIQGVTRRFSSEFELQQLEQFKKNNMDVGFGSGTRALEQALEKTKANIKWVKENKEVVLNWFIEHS
Protocol: Preamble: Within the scope of the invention, upon applying the enzymatic tests, once the minimum, concentration allowing triggering of crystal nucleation is reached, a solid fluorophore may first be deposited on the walls of the receptacle (a well in a multi-well plate), before beginning to deposit on the bottom of the receptacle. The delay associated with the triggering of nucleation (≧10 mins) is well seen on the kinetic curves in the figures shown. The enzymatic tests carried out are illustrated with the appended figures.
as §1
The main tests were conducted at 25° C., in solutions buffered to pH 7.4 (physiological pH). […] A temperature of 25° C. was therefore preferred.
as §2, §3
The excitation wavelength for the probes I.1 and I.2 (based on HPQ) was set to 355 nm, and the localized emission wavelength was set to 510 nm, since the fluorimeter used has filters of the bandpass type for selecting these wavelengths with a bandwidth of 14 nm for the excitation beam and of 10 nm for the emission one.
The enzyme was added last to the prepared wells. After adding the enzyme, the contents of the well were sucked up and released twice with a pipette, in order to homogenize as much as possible the mixture. […] The addition of the enzyme well by well was accomplished by observing the reading delay between the wells, so that the reaction times of each well were the same for each readout of the plate in order to allow comparison of the acquired data for different wells (in these experiments, there was a delay between 3 seconds and 20 seconds, between the readout of the neighboring wells, to be multiplied by up to 77 wells read by acquisition at a time t). […]

[4] = actual 10 μM, plateau not reached, underestimated
[5] = actual 18 μM, plateau not reached, underestimated

SMILES | Signal increase relative to noise in the absence of enzyme (stability to spontaneous hydrolysis) [1] | Falsely positive signal due to spontaneous hydrolysis of the probe ([1]; probe 209 μM and 80 μM without enzyme, 40 hours of incubation, FIG. 1) | Solubility in water [2] | Predicted Conc. (initial probe concentration estimated from the average ratio) [3, 4] | Predicted Conc. (initial probe concentration estimated from the average ratio) [3, 5] | Predicted Conc. (initial probe concentration estimated from the average ratio) ([3]; actual 32 μM) | Predicted Conc. (initial probe concentration estimated from the average ratio) ([3]; actual 59 μM) | Predicted Conc. (initial probe concentration estimated from the average ratio) ([3]; actual 100 μM) | Predicted Conc. (initial probe concentration estimated from the average ratio) ([3]; actual 378 μM, 3 wks stored solution) | Signal/Conc. (signal plateau/concentration ratio) ([3]; probe 32 μM, with PLA) | Signal/Conc. (signal plateau/concentration ratio) ([3]; probe 59 μM, with PLA) | Signal/Conc. (signal plateau/concentration ratio) ([3]; probe 100 μM, with PLA) | Signal/Conc. (signal plateau/concentration ratio) ([3]; probe 378 μM, 3 wks stored solution, with PLA) | Photo-degradation: signals once the plateau is reached, under irradiation of the fluorescence reader ([3]; with PLA, 11 h acquisition, FIG. 6) | Delay for obtaining an intense increase in the signal ([3]; with PLA) | Degradation in the absence of enzyme ([1]; probe 100 μM without enzyme, FIG. 3)
CC(C)C[C@H](N)C(=O)NCC1CCCCN1C(=O)Oc1ccccc1-c1nc2ccccc2c(=O)[nH]1 (some centres unmarked) [I.1] | NO signal increase | absence of any falsely positive signal due to spontaneous hydrolysis of the probe | not very soluble in water | 0 µM | 6 µM | 26 µM | 42 µM | 108 µM | 419 µM | 72794 RFU μM^−1 | 63054 RFU μM^−1 | 95711 RFU μM^−1 | 98684 RFU μM^−1 | do not decrease over time | about 10 minutes | 
CC(C)C[C@H](N)C(=O)NCC(C)(C)N(C)C(=O)Oc1ccccc1-c1nc2ccccc2c(=O)[nH]1 [I.2] | NO signal increase |  |  | 1 µM | 6 µM | 40 µM | 63 µM | 98 µM |  | 110289 RFU μM^−1 | 95096 RFU μM^−1 | 87269 RFU μM^−1 |  |  | about 10 minutes | does not degrade in the absence of enzyme
